In patent US20250064807A1, “Promoting Hair Growth and Treatment of Hair Loss or Excessive Hair Shedding” (Samson Clinical Pty Ltd, priority 2017, published 2025):
Values joined by “and” are separate entries in the source; they are usually repeats but may differ in a detail not shown here. Identical values can stand only once. “Also recorded” adds a separate entry of the source. Like-named read-outs stand apart in the source and are kept apart here.

Tests used:
[1] = cited from earlier work
[2] = Stability and beyond use of minoxidil and compounded dosage forms; assay type: physicochemical; details: 110° C. for 30 minutes
[3] = for minoxidil in serum samples at steady state: 0.45 mg sublingually daily for a minimum of 6 weeks
Procedure: (§1) Hair counts were performed on dermatoscopic images taken at baseline and after 6 weeks. […] Steady state serum levels were measured after 8 weeks of daily dosing. 13 patients had hair counts performed.

men with MPHL = details: cited from earlier work
[4] = tested on: women aged 20-68 with Sinclair stages 2-5 FPHL; assay: Head to head study topical 5% minoxidil once daily vs oral minoxidil 1 mg daily, 24 weeks (data on file); assay type: in vivo, human; details: for additional hairs on scalp from increase in hair density: scalp area 630 cm^2; for mean increase in terminal hair count: 24 weeks
men and women with AGA = assay: Hair regrowth by macrophotography hair counts and global photography (Example 7); assay type: in vivo, human
Procedure: Hair counts were performed on dermatoscopic images taken at baseline and after 6 weeks. […] Steady state serum levels were measured after 8 weeks of daily dosing.

women = assay: Hair count after 12 weeks of daily sublingual minoxidil troche (Example 6); assay type: in vivo, human; details: individual patients 1-3, listed as sublingual minoxidil
[5] = cited from earlier work; for mean serum concentration after topical application: scalp, twice daily; for peak serum concentration: one hour post-dose
[6] = tested on: patients with FPHL or MPHL; assay: Randomized double-blind study of 0.45 mg sublingual minoxidil, week 8 interim hair assessments (Example 8); assay type: in vivo, human
Procedure: Participants receive study medication for 24 weeks followed by a follow-up visit 4 weeks later.
The aim is to enroll 40 participants.
Number of participants completed Week 8: 12 (2 females, 10 males). […] This timepoint represents a third of the planned treatment period for the study (24 weeks). Data from these 12 participants have been analysed at the 8 week mark. Analysis was performed blind as the study is still ongoing.
The minimum criteria for hair loss severity in female participants is a Grade 2 and maximum is Grade 5. ISA at Screening was Sinclair Scale 2 and 3 for each female participant. […] As the study is ongoing and medication blind still stands, the final outcome of change in hair density (at Week 24) cannot be concluded in this report. The minimum criteria for enrolment for male participants is Grade III-Vertex and maximum is VI.
Standardized global photography are taken at Study Weeks 0 (prior to dispensing of medication) and 8. Subsequent Week 16, 24 and 28 visits will also include global photography. A vertex and frontal scalp photograph is taken from a fixed height with a dedicated SLR camera. Current collated global photographs for all 12 patients were assessed by a blinded assessor. Comparison photographs between Baseline and Week 8 was provided to the designated blinded assessor.
Initial assessment of Dermatology Life Quality Index (DLQI) for males and Women's AGA Quality of Life Questionnaire (WAA-QOL): Responses by female participants was generally more negative corresponding to a higher score at both Baseline and Week 8 visits. The impact on Quality of Life was more pronounced in comparison to the male participants. […] A full score of 38 represented dissatisfaction with current hair growth. The mean score was 25 (SD: 2.19) at Week 0 and 24.7 (SD: 4.08) at Week 8. The median score from all 10 male participants was 24.5 and 25 respectively. Both female patients reported an average of Grade 3 with the Sinclair Scale (FIG. 1 above) at Baseline visit and subsequent Week 8 visit. This was consistent with the Investigator's grade of their hair loss severity.

[7] = for blood pressure after first dose / at time of peak concentration: single sublingual dose 0.45 mg; for adverse events / side effects: sublingual minoxidil 0.45 mg, b166: 30 patients, 2 to 12 months
Procedure: as §1

[8] = Minoxidil serum levels after a single sublingual dose (Example 7); details: for minoxidil in the serum after 2 hours: single sublingual dose 0.45 mg
[9] = Assessment of sublingual minoxidil on patient blood pressure (Example 5); details: 2.5 mg sublingual troche, 5 individuals, monitored 6 hours post administration
[10] = 0.45 mg sublingually daily, minimum 6 weeks, 13 patients
[11] = 0.45 mg sublingually once daily
[12] = 0.25 mg sublingual troche daily, 12 weeks
[13] = 0.25 mg sublingual troche daily
[14] = Baseline vs Week 8, blinded assessor, blind not broken
[15] = 30 patients, sublingual minoxidil for between 2 and 12 months

Nc1cc(N2CCCCC2)nc(N)[n+]1[O-] [minoxidil, 2,4-Diamino-6-piperidinopyrimidine 3-oxide]
effect on blood pressure in hypertensive patients ([1]; oral, 5 to 100 mg daily): profound reduction in blood pressure | effect on blood pressure of normotensive individuals ([1]; oral, 5 to 100 mg daily): minimal effect | effect on blood pressure or pulse rate ([1]; topical): minimal effect | serum concentration threshold for any hemodynamic response ([1]; twelve hour steady state intravenous infusions (Ferry et al., 1996)): 20 ng/mL | thermal stability [2]: stable | minoxidil in serum samples at steady state [3]: No minoxidil was detected | minoxidil in serum samples at steady state ([3]; listed as sublingual minoxidil): not detected | accumulation with continuous dosing ([3]; continuous sublingual dosing): does not accumulate | men with MPHL with arrest of hair loss or mild to moderate hair regrowth (men with MPHL; applied topically): approximately 60% | average increase in hair count (men with MPHL; topical, 5% concentration, 12 months): 12.3% | additional hairs on scalp from increase in hair density ([4]; 7 hair/cm^2 increase (topical group)): 4600 hairs | additional hairs on scalp from increase in hair density ([4]; 27 hair/cm^2 increase (oral group)): 17,000 hairs | mean increase in terminal hair count ([4]; oral minoxidil 1 mg daily): 27 /cm^2 | mean increase in terminal hair count ([4]; topical 5% minoxidil once daily): 7 /cm^2 | change in hair counts on frontal and vertex areas, all patients (men and women with AGA; 0.45 mg sublingually daily, 6 weeks, 13 patients): increased terminal hairs; also recorded: increase in hair counts | hair density, clinic assessment (men and women with AGA; 0.45 mg sublingually daily, minimum 6 weeks, 2 patients): moderate increase (+2) | mean increase in frontal scalp terminal hairs (men and women with AGA; [10]): 69.13 hairs/cm^2 | mean increase in vertex scalp terminal hairs (men and women with AGA; [10]): 97.38 hairs/cm^2 | range of increase in frontal scalp terminal hairs (men and women with AGA; [10]): 4-133 hairs/cm^2 | range of increase in vertex scalp terminal hairs (men and women with AGA; [10]): 31-253 hairs/cm^2 | hair regrowth compared with topical or oral minoxidil (men and women with AGA; [11]): greater and detected earlier | increase from baseline in hair count on the vertex scalp (men and women with AGA; [11]): 52.5% | increase from baseline in hair count over the frontal scalp (men and women with AGA; [11]): 36.5% | hair regrowth compared with topical or oral minoxidil (men and women with AGA; 0.45 mg sublingually once daily, listed as sublingual minoxidil): grows more hair | midline hair density, blinded assessment of global photography (men and women with AGA; 0.45 mg sublingually, 8 weeks, 5 of the patients): slight increase | scalp global photographs at 6 weeks (men and women with AGA; 0.45 mg sublingually, all patients): either mild or moderate improvement | terminal hair count at 12 weeks (figure legend) (women; [12]): 123 and 186 and 71 | vellus hair count at 12 weeks (women; [12]): 6 and 13 | total hair count at 12 weeks (women; 0.25 mg sublingual troche daily, 12 weeks, scalp section): 129 and 199 and 84 | increase in total hair count from baseline to 12 weeks (women; [13]): 21 hairs and 32 hairs and 23 hairs | percent increase in total hair count from baseline to 12 weeks (women; [13]): 19.4% and 19.2% and 37.7% | Hair Count at week 12 (women; Table 1, terminal hairs, 0.25 mg sublingual troche daily): 71 and 123 and 186 | Percentage increase (women; Table 1, week 12 vs baseline terminal hair count): 42% and 23% and 23.2% | mean serum concentration after topical application ([5]; 2% minoxidil (20 mg/ml)): 0.7 ng/mL | mean serum concentration after topical application ([5]; 5% minoxidil (50 mg/ml)): 1.8 ng/mL | absorption through the gastrointestinal tract ([5]; in vivo, po): > 90% | peak serum concentration ([5]; oral dose 2.5 mg): 18.5 ng/mL | peak serum concentration ([5]; oral dose 5 mg): 41 ng/mL | highest serum level recorded ([5]; topical application): 18.2 ng/mL | adverse events at Week 8 visit (0.45 mg sublingual once daily, 12 participants, blind not broken): No significant adverse events | blood pressure readings, day of randomization vs Week 8 (12 participants): not significant | respiratory rate and tympanic temperature (12 participants): within normal range | safety blood profile (Week 8, 12 participants): within the normal range | Investigator scalp assessment, Sinclair Scale, change at Week 8 ([6]; 0.45 mg sublingual once daily, individual female participants, blind not broken, listed as sublingual minoxidil): slight increase from grade 3 to 2; also recorded: no change | Men's Hair Growth Questionnaire median score at Week 8 ([6]; 10 male participants): 25 | Men's Hair Growth Questionnaire scores, Week 0 vs Week 8 ([6]; 10 male participants): No significant difference | Men's Hair Growth Questionnaire mean score at Week 8 ([6]; 10 male participants, full score 38 = dissatisfaction): 24.7 (SD: 4.08) | participants (of 12) whose assessment suggests a slight to moderate increase in hair density [6, 14]: Eight | participants (of 12) whose global photography suggests a decrease in hair density [6, 14]: 2 participants | patient reported Sinclair Scale grade at Week 8 (average) ([6]; both female patients, same at Baseline): 3 Grade | biochemical abnormality [7, 15]: No biochemical abnormality was detected | hypertrichosis, tachycardia, fluid retention or postural hypotension [7, 15]: No patient developed hypertrichosis, tachycardia, fluid retention or postural hypotension | mean blood pressure [7, 15]: no reduction | blood pressure after first dose / at time of peak concentration [7]: unaffected | blood pressure after first dose / at time of peak concentration ([7]; listed as sublingual minoxidil): no change | adverse events / side effects [7]: No adverse events were noted | adverse events / side effects ([7]; listed as sublingual minoxidil): No side effects were reported | minoxidil in the serum after 2 hours [8]: no detectable minoxidil; also recorded: undetectable | minoxidil in the serum after 2 hours ([8]; listed as sublingual minoxidil): no detectable minoxidil | circulating minoxidil after 1 hour ([8]; sublingual dosing): undetectable | adverse symptoms, postural hypotension or change in blood pressure [9]: No adverse symptoms, postural hypotension or change in blood pressure was noted
